“And” between values parts separate entries of the source, which are not always exact repeats. Equal entries are not always repeated. Ends that are not written are not given here. FAM = 5(6)-carboxyfluorescein; Ahx = NCCCCCC(=O)O
How the values were obtained:
[1] = test system: intestinal tissue (CD209) and lymph nodes of healthy mice; assay: Free peptide homing in healthy Balb/C mice; format: in vivo, mouse; settings: 30 nmoles i.v., 2 h
Protocol: A, Thirty nmoles of FAM-UNO were injected intravenously in healthy Balb/C mice. Peptide was allowed to circulate for 2 hours. Mice were then sacrificed and intestinal tissue was analyzed by immunofluorescence using rabbit anti-FAM (green) together with rat anti-CD209 (red) and counterstained with DAPI. B, Thirty nmoles of FAM-UNO were injected intravenously in mice bearing 4T1 tumors, 10 days after orthotopic inoculation of 10^6 Cells. Peptide was let to circulate for two hours, mice were then sacked and tumor and tissues analyzed by immunofluorescence using rabbit Anti-FAM (green) together with rat anti-CD209 (red) and counterstained with DAPI (Blue). Images in A and B were taken using the same imaging conditions. Scale bar: 50 μm (images in B are at the same scale as in A). Representative images from n=3 mice.
Thirty nmoles of FAM-UNO were injected intravenously in healthy Balb/C female mice. Peptide was allowed to circulate for 2 hours. Mice were then sacrificed, and inguinal lymph node and kidney analyzed by immunofluorescence using rabbit anti-FAM together with rat anti-CD206 (red, 2901) and counterstained with DAPI (blue). FAM-UNO is absent from the healthy inguinal lymph node (left panel), while some CD206 is observed (2901). In the kidney (right panel), the FAM fluorescence signal is detected throughout the tissue. Scale bars: 100 μm. Representative images from n=3 mice.

[2] = test system: peritoneal cells (CCR2+ macrophages) of 4T1 tumor-bearing mice; assay: Flow cytometry of FAM-peptide binding to peritoneal cells from 4T1 tumor mice; format: cell-based, mouse
Protocol: A, Change in fluorescence anisotropy of FAM-UNO (dotted line) and FAM-UNO in DTT (solid line) while incubating with mouse recombinant CD206. B, Change in fluorescence anisotropy of FAM-CSPGAK with mouse recombinant CD206 (solid line) or with CD163 (dotted line) and of FAM-CPMTDNE (control) with CD206 (dashed line). C, FAM-UNO binds selectively to CCR2^+ macrophages collected from the peritoneal cavity of 4T1 tumor-bearing mice, as 94.3% of FAM^+ cells are CCR2^+ cells. The analysis was done gating for the FAM^+ population (left panel). In these 4T1 tumor bearing mice, 58% of peritoneal cells are macrophages, i.e. CCR2^+ cells (right panel). D, FAM-UNO binding to peritoneal cells is inhibited by preincubating with 10 µg/mL of anti-CD206, whereas the preincubation with anti CD206 antibody had no effect on FAM-LyP-1 binding. In panels A and D are shown representative graphs from three independent experiments. In panels c and d are shown results from three independent experiments (n=3 mice) and bars of panel D represents mean+SEM.
Peritoneal cells were extracted from Balb/c mice 2 weeks after inoculation of 10^6 cells orthotopically). Mice were anesthetized and intraperitoneally injected with 5 mL of PBS+1% BSA, the abdomen was massaged to detach macrophages and the peritoneal fluid was collected. This procedure typically yielded 5-9×10^6 cells. Cells were concentrated to 1 mL in the same peritoneal fluid. For FAM-peptide incubation, the peptides were incubated for 30 minutes at 4° C. For antibody incubation the cells were incubated with antibody for 1 h at 4° C. A647 Rat anti-CCR2 (Biolegend, CA, USA. Catalog number 150603) was incubated for 1 h at 4° C. at a dilution of 1/200. FAM-peptides were incubated at a concentration of 0.5 μg/mL, and Rat anti-CD206 (Bio-Rad, CA, USA. Product code MCA2235GA) was incubated at a concentration of 10 μg/mL. Binding of FAM-peptides was monitored with 488 nm channel and CCR2 labeling was assessed in the 647 nm channel using A647 Anti-CCR2 (Biolegend, CA, USA). After incubation of FAM-Peptides or antibodies, the cells were washed 3 times at 4° C. with PBS-Tby centrifugation at 250 g for 6 minutes, followed by flow cytometry analysis (Accuri, BD Biosciences, CA, USA).

[3] = 4T1 tumor lysate, injected within 1 min
Protocol: High-performance liquid chromatography (Agilent 1200 series, USA)-mass spectrometry (SciexQ-Trap 4500, Canada) analysis was done using a C18 column (Kinetex 2.6 μm EVO C18 100×4.6 mm, Phenomenex, USA). Ionization was performed at 300° C. with declustering potential set 30 V. Chromatography gradient started with 2 min 5% acetonitrile in water, followed by linear increase to 95% acetonitrile in 10 min and finally 10 min isocratic flow of 95% acetonitrile in water. Both eluents, water and acetonitrile, contained 0.2% formic acid. Flow rate was 0.3 ml/min. Column temperature was maintained at 40° C. Autosampler temperature was set to 37° C. Retention times and m/z signals of FAM-UNO, were determined from 30 μM FAM-UNO solution in PBS. Tumor lysate was split into two aliquots of 200 μL in each. From one aliquot, 20 μL were injected and the LC-MS profile obtained. The second aliquot was mixed with 50 μL of 30 μM FAM-UNO in PBS and injected within 1 min to LC-MS and the LC-MS profile obtained.

MEMs in MKN45-P tumors = settings: 30 nmoles i.v., 2 h
Protocol: Thirty nmoles of FAM-UNO or FAM-control peptide were injected intravenously into mice and allowed to circulate for 2 h. Mice were then sacrificed and tumor and tissues were analyzed by immunofluorescence using rabbit anti-FAM (green) and rat anti-CD206 (red) antibodies, and counterstained with DAPI. […] The metastases were induced by i.v. inoculation of B16F10 melanoma cells. […] Blue: DAPI. Representative fields from multiple sections (n≥3) prepared from at least 3 tumors are shown. Scale bar: 50 μm. Images shown are representative fields from multiple sections (≥3) prepared from at least 3 tumors (n≥3 mice). The graphs show mean+SEM of FAM signal quantified as described in Materials and Methods.
Tumor models were induced according to protocols approved by the Estonian Ministry of Agriculture, Committee of Animal Experimentation (permit #48). For the 4T1 breast model, 8-week old female Balb/c mice were injected in the mammary fat pad with 10^6 cells dispersed in 50 μL of PBS. For homing studies, mice were used 10 days later, when the tumor had reached ˜150 mm^3. For MCF-7 breast model, 8-week old female nude mice were implanted with an estrogen pellet, and 1 week later inoculated with 5×10^6 MCF-7 cells in 100 μL of cold Matrigel (BD Biosciences, CA, USA). Mice were used for homing studies three weeks later (tumor volume˜150 mm^3). For the metastatic gastric carcinoma, 10^6 MKN45-P cells in PBS were injected intraperitoneally in 8-week old female nude mice. Mice were used for homing studies two weeks later. For the metastatic melanoma model, 2×10^5 B16F10 cells were injected intravenously in 100 μL of PBS in C57 BL6 mice. The mice were used for homing studies 10 days after. […]
For free peptide homing studies, mice were injected intravenously with 30 nmoles of FAM-peptides in 100 μL of PBS. […] FAM was detected using Rabbit anti-FITC (Invitrogen, CA, USA. Catalog # A-889) at a dilution of 1/100 and using Alexa Fluor-546 anti-rabbit antibody (Invitrogen, Ca, USA. Catalog # A-11035) at a dilution of 1/200.

## FAM-UNO: FAM-labeled UNO peptide CSPGAKVRC (SEQ ID NO: 1); 5(6)-carboxyfluorescein with 6-aminohexanoic acid spacer at the N-terminus ({FAM-Ahx}-CSPGAKVRC; cysteine pairing not given here)
[1]
  homing to lymph nodes of healthy mice: did not home to the lymph nodes of healthy Balb/C mice
  recruitment to intestinal tissue (expresses CD209) of healthy mice: not recruited to intestinal tissue of healthy mice
[2]; 0.5 μg/mL peptide, 30 min, 4 °C
  cells gated for CCR2+ that were positive for FAM-UNO binding: 94%
[2]; anti-CD206 10 μg/mL
  reduction of binding to peritoneal cells by pre-incubation with anti-CD206 antibody: 25%
[2]; gated for the FAM+ population, 0.5 μg/mL peptide, 30 min, 4 °C
  FAM+ cells that are CCR2+ cells (macrophages): 94.3% and 95%
[3]
  fate of the disulfide bridge on incubation with tumor lysate: the disulfide bridge was reduced to yield a linear peptide
MEMs in MKN45-P tumors
  accumulation in MEMs / CD206+ cells: accumulated in MEMs
